Data as given in US6803357B1, “Method of regulating glucose metabolism, and reagents related thereto” (New England Medical Center Hospitals, Inc., priority 1999, dated 2004).

Tests used:
[1] = test system: DP-IV; assay: inhibition of / affinity for DP-IV; type: biochemical
Experimental: As an illustrative embodiment, the ability of a test agent to inhibit DPIV can be assessed using a calorimetric or fluorometric substrate, such as Ala-Pro-paranitroanilide. […] Moreover, DPIV can be purified, and is accordingly readily amenable for use in such high throughput formats as multi-well plates.
An illustrative reaction mixture includes […] (pH7.8), 10 μM Ala-Pro-paranitroanilide, 6 milliunits of DPIV, and 2% (v/v) dimethylformamide in a total volume of 1.0 mL. The reaction is initiated by addition of enzyme, and formation of reaction product (paranitroanilide) in the presence and absence of a test compound can be detected photometrically, e.g., at 410 nm.

[2] = test system: blood glucose levels; assay: oral glucose tolerance test (oral glucose challenge) in mice; type: in vivo; conditions: for glucose levels in blood / glucose control after a single injection: acute, single injection before oral glucose tolerance test; for blood sugar levels / glycemic excursion to oral glucose challenge, chronic treatment: injected twice daily for four days, then oral glucose challenge; for response to a sub-therapeutic dose of GLP-1: single injection, 8 μg GLP-1 five minutes prior to glucose
Experimental: The first two experiments are “acute” experiments wherein the mice were injected with a single dose of Pro-boro-pro. In the first set of experiments mice were injected with 150 μg of Pro-boro-pro (PBP-1) and then subjected to an oral glucose tolerance test within an hour. […] In a second set of experiments mice were injected with Pro-boro-pro (PBP-2) one hour prior to an oral glucose challenge test. FIG. 3 presents the results of these experiments. Each set of experiments was also performed using saline as a control.
The third set of experiments were “chronic” experiments, wherein the mice were injected twice daily with Pro-boro-pro for four days, followed by an oral glucose challenge.

Molecule: CC(NC(=O)OC(C)(C)C)C(=O)N1CCCC1B(O)O (stereo not drawn) [Boc-blocked Ala-boroPro, Boc-Ala-boroPro]
- affinity for DP-IV [1]: no affinity

Molecule: O=C(C1CCCN1)N1CCCC1B(O)O (centres unmarked) [Pro-boro-pro]
- fasting blood sugars, chronic treatment ([2]; chronic (>5 days) treatment alone): lowers
- glucose levels in blood / glucose control after a single injection ([2]; mice): alone sufficient to improve glucose control
- glucose levels in blood / glucose control after a single injection ([2]; mice, listed as PBP-1): improves glucose levels in blood
- glucose levels in blood / glucose control after a single injection ([2]; mice, listed as PBP-2): improves glucose levels in blood
- blood sugar levels / glycemic excursion to oral glucose challenge, chronic treatment ([2]; mice): lowers
- blood sugar levels / glycemic excursion to oral glucose challenge, chronic treatment ([2]; mice, listed as PBP-3): lowering of the blood sugar levels
- blood sugar, oral glucose challenge ([2]; mice, overall statement on the experiments): clearly lowers blood sugar
- response to a sub-therapeutic dose of GLP-1 ([2]; mice): potentiate the response
- response to a sub-therapeutic dose of GLP-1 ([2]; mice, listed as PBP-1): potentiates the response

Molecule: L-Ala-L-boroPro-pinacol [early fraction]
- extent of DP-IV inhibition compared with later fractions ([1]; at equal concentrations, silica gel fractions of Ala-boroPro-pinacol): inhibits DP-IV to a greater extent than later fractions
